Results as given in patent US6114334A, “Piperazine derivatives as therapeutic agents” (Knoll Aktiengesellschaft, priority 1995, dated 2000).

Assays:
[1] = target: T1, 5-HT1A receptors (Rattus norvegicus, UniProt P19327); experiment: inhibition of [3H]8-OH-DPAT binding to 5-HT1A receptors in vitro; set-up: species or system rat (male Sprague-Dawley, hippocampal tissue); conditions: 10^-6 M, rat hippocampus, [3H]8-OH-DPAT; read-out: % displacement at 10^-6 M, 5-HT1A
T1 sequence (P19327 1-422): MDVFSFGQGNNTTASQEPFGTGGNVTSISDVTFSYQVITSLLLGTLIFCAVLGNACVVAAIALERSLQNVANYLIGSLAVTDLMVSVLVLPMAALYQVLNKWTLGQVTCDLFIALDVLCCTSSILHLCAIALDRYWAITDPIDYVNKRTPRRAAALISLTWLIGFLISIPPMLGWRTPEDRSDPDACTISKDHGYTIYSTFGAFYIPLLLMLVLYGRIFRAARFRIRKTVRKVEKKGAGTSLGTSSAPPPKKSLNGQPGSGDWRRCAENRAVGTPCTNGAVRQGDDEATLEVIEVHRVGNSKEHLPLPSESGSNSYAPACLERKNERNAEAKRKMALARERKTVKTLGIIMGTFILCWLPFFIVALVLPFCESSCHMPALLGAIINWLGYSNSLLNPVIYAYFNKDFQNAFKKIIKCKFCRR

[2] = target: D2 dopamine receptors (Rattus norvegicus, UniProt P61169); experiment: inhibition of tritiated (S)-sulpiride binding to D2 dopamine receptors in vitro; set-up: species or system rat (male Charles River CD, striatal tissue); conditions: rat striatum, tritiated (S)-sulpiride 1 nM, 4° C., 40 min
D2 dopamine receptors, sequence (P61169 whole entry): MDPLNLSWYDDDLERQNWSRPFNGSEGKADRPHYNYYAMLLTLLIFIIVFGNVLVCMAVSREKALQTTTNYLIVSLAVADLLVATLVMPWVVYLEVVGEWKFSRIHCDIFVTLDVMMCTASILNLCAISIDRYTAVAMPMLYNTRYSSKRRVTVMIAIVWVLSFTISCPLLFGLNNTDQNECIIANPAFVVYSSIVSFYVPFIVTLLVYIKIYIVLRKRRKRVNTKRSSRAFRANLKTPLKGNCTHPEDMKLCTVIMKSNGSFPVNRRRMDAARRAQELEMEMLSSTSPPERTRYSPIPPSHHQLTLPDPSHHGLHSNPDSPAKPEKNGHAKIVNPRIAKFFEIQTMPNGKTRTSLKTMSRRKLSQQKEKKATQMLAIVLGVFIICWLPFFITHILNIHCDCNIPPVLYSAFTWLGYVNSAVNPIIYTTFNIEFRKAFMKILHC

[3] = tested on: α1-adrenoceptors; experiment: inhibition of 7-methoxy-[3H]prazosin binding to α1-adrenoceptors in vitro; set-up: species or system rat (male Charles River CD, whole cortical tissue); conditions: 10^-6 M, rat whole cortex, 7-methoxy-[3H]prazosin; 30 min, 1 µM
Method in brief: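 Male CD rat cortical membranes in 50 mM Tris-HCl pH 7.6 were incubated 30 min at 30 °C with 7-methoxy-[3H]prazosin (0.1 nM as added), with 5 μM phentolamine (as added) defining non-specific binding, then filtered and counted. Compounds were tested at 10^-6 M for % displacement or at 10^-11–10^-3 M for IC50, and Ki was derived from IC50, ligand concentration and KD.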

[4] = target: T2, α2D-adrenoceptors (Rattus norvegicus, UniProt P22909); experiment: inhibition of tritiated idazoxan binding to α2D-adrenoceptors in vitro; set-up: species or system rat (male Charles River CD, frontal cortical tissue); conditions: 10^-6 M, rat frontal cortex, [3H]idazoxan; read-out: % displacement at 10^-6 M, α2D
T2 sequence (P22909 1-465): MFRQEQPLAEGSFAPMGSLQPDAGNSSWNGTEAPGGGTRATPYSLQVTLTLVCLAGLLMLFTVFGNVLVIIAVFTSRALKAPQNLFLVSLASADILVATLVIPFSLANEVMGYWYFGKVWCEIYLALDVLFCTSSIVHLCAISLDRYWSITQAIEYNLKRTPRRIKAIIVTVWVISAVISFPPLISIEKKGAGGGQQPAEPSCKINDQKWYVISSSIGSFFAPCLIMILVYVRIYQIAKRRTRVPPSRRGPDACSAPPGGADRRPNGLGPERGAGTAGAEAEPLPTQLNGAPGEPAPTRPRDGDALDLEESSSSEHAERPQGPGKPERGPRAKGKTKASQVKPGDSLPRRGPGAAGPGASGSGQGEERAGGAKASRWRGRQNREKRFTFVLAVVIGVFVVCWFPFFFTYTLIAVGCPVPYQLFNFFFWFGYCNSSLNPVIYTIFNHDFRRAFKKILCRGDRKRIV

[5] = target: T3, α2A-adrenoceptors (Homo sapiens, UniProt P08913); experiment: inhibition of tritiated RX 821002 binding to α2A-adrenoceptors in vitro; set-up: species or system human (cerebral cortex post-mortem); conditions: 10^-6 M, human cerebral cortex, [3H]RX 821002; read-out: % displacement at 10^-6 M, α2A
T3 construct: Human cerebral cortex obtained at post-mortem; from tissue; host or cells: human cerebral cortex, post-mortem
T3 sequence (P08913 1-465): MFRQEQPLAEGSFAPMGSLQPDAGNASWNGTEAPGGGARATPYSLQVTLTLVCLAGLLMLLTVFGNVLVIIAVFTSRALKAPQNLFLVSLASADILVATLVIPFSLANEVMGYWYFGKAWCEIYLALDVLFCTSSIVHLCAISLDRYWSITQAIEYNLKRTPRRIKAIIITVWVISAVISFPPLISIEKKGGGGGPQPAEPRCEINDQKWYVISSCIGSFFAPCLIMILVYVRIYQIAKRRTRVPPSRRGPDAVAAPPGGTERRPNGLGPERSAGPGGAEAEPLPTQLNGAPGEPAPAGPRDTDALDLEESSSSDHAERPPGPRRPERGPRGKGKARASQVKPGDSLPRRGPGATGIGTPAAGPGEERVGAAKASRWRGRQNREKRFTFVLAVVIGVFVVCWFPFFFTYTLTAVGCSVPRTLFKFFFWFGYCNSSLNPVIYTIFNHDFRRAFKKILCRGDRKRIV
Method in brief: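 Post-mortem human cerebral cortex membranes (10 mg wet tissue/tube; 50 mM Tris-HCl pH 7.5, ascorbate, EDTA) incubated 75 min at 0 °C with [3H]RX 821002 (0.2 nM as added) and compound; filtration, scintillation counting. Compounds displacing ≥50% at 10^-6 M tested at 10^-11–10^-3 M; IC50 converted to Ki.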

- inhibition at 1 µM [1]: 98%
- Ki [2]: > 0.5 µM
- % displacement at 10^-6 M, α1 [3]: 94%
- inhibition at 1 µM [4]: 96%
- inhibition at 1 µM [5]: 100%
Structure (SMILES): Nc1c(CN2CCN(c3cccc4c3OCCO4)CC2)c(C2CC2)nn1-c1ccccc1Cl [Example 33, 5-Amino-4-[4-(1,4-benzodioxan-5-yl)piperazin-1-ylmethyl]-1-(2-chlorophenyl)-3-cyclopropylpyrazole]
